The values below come from patent publication US10667516B2, “Use of 3-isoxazolidinones as selective herbicides in grass and Brassica crops” (FMC Corporation, priority 2011, dated 2020).

Each structure is given as a SMILES string.

In the data set the test system is chickweed. In words: Volatility evaluation (phytotoxic injury of chickweed by volatilization from treated soil). To be noted: formulations containing the non-encapsulated compound. The source says:
Chickweed is very sensitive to clomazone and is a good indicator for bleaching compound volatility. […] These formulations are the reference standards against which the experimental formulations are compared. Four inch plastic pots were fitted with a basket style coffee filter, cut to size, placed in the bottom of each pot to cover the drainage holes and to stop soil from exiting the bottom of the pot. Each pot was filled with sandy loam soil that was sieved using a #10 mesh sieve to remove any large soil particles and debris. Filled soil pots were lightly watered prior to treatment application. The test solutions were applied to the soil surface using the DeVries Generation III sprayer, two replicates per test solution, at a rate of 0.25 g ai/ha. Each replicate test was set-up by placing an empty four inch plastic pot onto a greenhouse bench. Pots containing mature chickweed, about 2 inches in height, were placed around the empty pot in an eight spoke pattern. […] The untreated chickweed plants were evaluated for phytotoxic injury at 14 days after treatment. Volatility was evaluated by measuring the distance (cm) from the center of the treated soil pot to the distal point where bleaching effects were observed on each spoke. All eight spokes for each treatment were evaluated. The amount of volatility was determined by calculating the total square centimeters of phytotoxic injury per treatment. […]

On to `CC1(C)CON(Cc2ccc(Cl)cc2Cl)C1=O` [2,4-Cl, 2-(2,4-dichlorophenyl)methyl-4,4-dimethyl-3-isoxazolidone], for which the “control of volatility compared to the non-encapsulated clomazone formulation” value was “significant control of volatility”.

`CC1(C)CON(Cc2cc(Cl)ccc2Cl)C1=O` [2,5-Cl, 2-(2,5-dichlorophenyl)methyl-4,4-dimethyl-3-isoxazolidone]: the “control of volatility compared to the non-encapsulated clomazone formulation” value is “significant control of volatility”.
